This passage reports Activity results from ChEMBL document CHEMBL4330132, “5-Keto-3-cyano-2,4-diaminothiophenes as selective maternal embryonic leucine zipper kinase inhibitors” (Bioorg Med Chem Lett, 2019).

The test system of test [1] is Tyrosine-protein kinase ABL1 (Homo sapiens), P00519 [T315I]. Description: Binding affinity to human non-phosphorylated ABL1 T315I mutant (S229 to K512 residues) expressed in mammalian expression system assessed as residual binding level at 1 uM by Kinomescan method relative to control.
Test [2] addresses Calcium/calmodulin-dependent protein kinase type 1D (Homo sapiens) (UniProt Q8IU85). Description: Binding affinity to wild-type human partial length CAMK1D (M1 to K299 residues) expressed in bacterial expression system assessed as residual binding level at 1 uM by Kinomescan method relative to control.
For test [3], the target named is Calcium/calmodulin-dependent protein kinase kinase 1 (Homo sapiens) (UniProt Q8N5S9). Kind of test: Binding affinity to wild-type human partial length CAMKK1 (R65 to E414 residues) expressed in bacterial expression system assessed as residual binding level at 1 uM by Kinomescan method relative to control.
Test [4] concerns the target Serine/threonine-protein kinase Chk1 (Homo sapiens) (UniProt O14757). Description: Binding affinity to wild-type human partial length CHEK1 (M1 to G289 residues) expressed in bacterial expression system assessed as residual binding level at 1 uM by Kinomescan method relative to control.
The target in test [5] is Ephrin type-A receptor 7 (Homo sapiens) (UniProt Q15375). Kind of test: Binding affinity to wild-type human partial length EPHA7 (Y608 to S912 residues) expressed in bacterial expression system assessed as residual binding level at 1 uM by Kinomescan method relative to control.
In test [6] the target is Mitogen-activated protein kinase 4 (Homo sapiens) (UniProt P31152). Kind of test: Binding affinity to wild-type human partial length ERK4 (M1 to L365 residues) expressed in bacterial expression system assessed as residual binding level at 1 uM by Kinomescan method relative to control.
The target of test [7] is Homeodomain-interacting protein kinase 3 (Homo sapiens) (UniProt Q9H422). Description: Binding affinity to wild-type human partial length HIPK3 (M153 to N562 residues) expressed in mammalian expression system assessed as residual binding level at 1 uM by Kinomescan method relative to control.
For test [8], the target named is Hormonally up-regulated neu tumor-associated kinase (Homo sapiens) (UniProt P57058). Kind of test: Binding affinity to wild-type human partial length HUNK (A31 to K354 residues) expressed in bacterial expression system assessed as residual binding level at 1 uM by Kinomescan method relative to control.
Test [9] has as its target Mitogen-activated protein kinase kinase kinase 4 (Homo sapiens) (UniProt Q9Y6R4). Description: Binding affinity to wild-type human partial length MAP3K4 (G1319 to E1608 residues) expressed in bacterial expression system assessed as residual binding level at 1 uM by Kinomescan method relative to control.
Test [10] addresses Mitogen-activated protein kinase kinase kinase kinase 5 (Homo sapiens) (UniProt Q9Y4K4). Kind of test: Binding affinity to wild-type human partial length MAP4K5 (M1 to P297 residues) expressed in bacterial expression system assessed as residual binding level at 1 uM by Kinomescan method relative to control.
In test [11] the target is MAP kinase-activated protein kinase 5 (Homo sapiens) (UniProt Q8IW41). Kind of test: Binding affinity to wild-type human partial length MAPKAPK5 (M1 to D322 residues) expressed in mammalian expression system assessed as residual binding level at 1 uM by Kinomescan method relative to control.
Test [12] addresses MAP/microtubule affinity-regulating kinase 3 (Homo sapiens) (UniProt P27448). Kind of test: Binding affinity to wild-type human full length MARK3 (M1 to L729 residues) expressed in bacterial expression system assessed as residual binding level at 1 uM by Kinomescan method relative to control.
Test [13] deals with Dual specificity mitogen-activated protein kinase kinase 2 (Homo sapiens) (UniProt P36507). Kind of test: Binding affinity to wild-type human full length MEK2 (M1 to V400 residues) expressed in mammalian expression system assessed as residual binding level at 1 uM by Kinomescan method relative to control.
Test [14] has as its target Dual specificity mitogen-activated protein kinase kinase 5 (Homo sapiens) (UniProt Q13163). Description: Binding affinity to wild-type human partial length MEK5 (L98 to P448 residues) expressed in mammalian expression system assessed as residual binding level at 1 uM by Kinomescan method relative to control.
Test [15] concerns the target Serine/threonine-protein kinase PAK 2 (Homo sapiens) (UniProt Q13177). Description: Binding affinity to wild-type human partial length PAK2 (P151 to R525 residues) expressed in bacterial expression system assessed as residual binding level at 1 uM by Kinomescan method relative to control.
In test [16] the target is Cyclin-dependent kinase 18 (Homo sapiens) (UniProt Q07002). Kind of test: Binding affinity to wild-type human full length PCTK3 (M3 to F474 residues) expressed in bacterial expression system assessed as residual binding level at 1 uM by Kinomescan method relative to control.
The test system of test [17] is Phosphatidylinositol 4,5-bisphosphate 3-kinase catalytic subunit alpha isoform (Homo sapiens), P42336 [E542K]. Kind of test: Binding affinity to human partial length PIK3CA E542K mutant (R108 to N1068 residues) expressed in mammalian expression system assessed as residual binding level at 1 uM by Kinomescan method relative to control.
Test [18] concerns Phosphatidylinositol 4,5-bisphosphate 3-kinase catalytic subunit alpha isoform (Homo sapiens), P42336 [I800L]. Description: Binding affinity to human partial length PIK3CA I800L mutant (R108 to N1068 residues) expressed in mammalian expression system assessed as residual binding level at 1 uM by Kinomescan method relative to control.
The target of test [19] is Serine/threonine-protein kinase N2 (Homo sapiens) (UniProt Q16513). Kind of test: Binding affinity to wild-type human partial length PKN2 (E634 to C984 residues) expressed in bacterial expression system assessed as residual binding level at 1 uM by Kinomescan method relative to control.
The target in test [20] is Serine/threonine-protein kinase PLK4 (Homo sapiens) (UniProt O00444). Kind of test: Binding affinity to wild-type human partial length PLK4 (M1 to S273 residues) expressed in mammalian expression system assessed as residual binding level at 1 uM by Kinomescan method relative to control.
Test [21] deals with Serine/threonine-protein kinase SIK3 (Homo sapiens) (UniProt Q9Y2K2). Kind of test: Binding affinity to wild-type human partial length QSK (A90 to L395 residues) expressed in mammalian expression system assessed as residual binding level at 1 uM by Kinomescan method relative to control.
Test [22] deals with Ribosomal protein S6 kinase alpha-6 (Homo sapiens) (UniProt Q9UK32). Kind of test: Binding affinity to wild-type human partial length N-terminal RSK4 kinase domain 1 (M1 to E397 residues) expressed in mammalian expression system assessed as residual binding level at 1 uM by Kinomescan method relative to control.
Test [23] deals with STE20/SPS1-related proline-alanine-rich protein kinase (Homo sapiens) (UniProt Q9UEW8). Kind of test: Binding affinity to wild-type human partial length STK39 (P43 to I357 residues) expressed in mammalian expression system assessed as residual binding level at 1 uM by Kinomescan method relative to control.
Test [24] deals with Serine/threonine-protein kinase 32A (Homo sapiens) (UniProt Q8WU08). Kind of test: Binding affinity to wild-type human full length YANK1 (M1 to L396 residues) expressed in mammalian expression system assessed as residual binding level at 1 uM by Kinomescan method relative to control.
Chain of Serine/threonine-protein kinase 32A (Homo sapiens) (Q8WU08 whole entry, the tested form may be a part): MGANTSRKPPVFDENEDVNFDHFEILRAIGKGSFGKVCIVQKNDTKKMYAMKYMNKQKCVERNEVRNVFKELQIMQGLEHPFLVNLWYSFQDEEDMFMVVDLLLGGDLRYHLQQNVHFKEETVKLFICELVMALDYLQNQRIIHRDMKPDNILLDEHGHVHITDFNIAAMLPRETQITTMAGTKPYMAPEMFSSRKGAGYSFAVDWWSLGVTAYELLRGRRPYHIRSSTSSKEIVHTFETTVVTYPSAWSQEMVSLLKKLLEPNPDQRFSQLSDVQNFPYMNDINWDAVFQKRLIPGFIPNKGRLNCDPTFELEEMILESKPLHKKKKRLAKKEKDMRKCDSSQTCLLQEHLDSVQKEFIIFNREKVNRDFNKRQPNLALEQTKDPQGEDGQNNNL

Chain of Serine/threonine-protein kinase N2 (Homo sapiens) (Q16513 whole entry, looked up, the tested form may be a part): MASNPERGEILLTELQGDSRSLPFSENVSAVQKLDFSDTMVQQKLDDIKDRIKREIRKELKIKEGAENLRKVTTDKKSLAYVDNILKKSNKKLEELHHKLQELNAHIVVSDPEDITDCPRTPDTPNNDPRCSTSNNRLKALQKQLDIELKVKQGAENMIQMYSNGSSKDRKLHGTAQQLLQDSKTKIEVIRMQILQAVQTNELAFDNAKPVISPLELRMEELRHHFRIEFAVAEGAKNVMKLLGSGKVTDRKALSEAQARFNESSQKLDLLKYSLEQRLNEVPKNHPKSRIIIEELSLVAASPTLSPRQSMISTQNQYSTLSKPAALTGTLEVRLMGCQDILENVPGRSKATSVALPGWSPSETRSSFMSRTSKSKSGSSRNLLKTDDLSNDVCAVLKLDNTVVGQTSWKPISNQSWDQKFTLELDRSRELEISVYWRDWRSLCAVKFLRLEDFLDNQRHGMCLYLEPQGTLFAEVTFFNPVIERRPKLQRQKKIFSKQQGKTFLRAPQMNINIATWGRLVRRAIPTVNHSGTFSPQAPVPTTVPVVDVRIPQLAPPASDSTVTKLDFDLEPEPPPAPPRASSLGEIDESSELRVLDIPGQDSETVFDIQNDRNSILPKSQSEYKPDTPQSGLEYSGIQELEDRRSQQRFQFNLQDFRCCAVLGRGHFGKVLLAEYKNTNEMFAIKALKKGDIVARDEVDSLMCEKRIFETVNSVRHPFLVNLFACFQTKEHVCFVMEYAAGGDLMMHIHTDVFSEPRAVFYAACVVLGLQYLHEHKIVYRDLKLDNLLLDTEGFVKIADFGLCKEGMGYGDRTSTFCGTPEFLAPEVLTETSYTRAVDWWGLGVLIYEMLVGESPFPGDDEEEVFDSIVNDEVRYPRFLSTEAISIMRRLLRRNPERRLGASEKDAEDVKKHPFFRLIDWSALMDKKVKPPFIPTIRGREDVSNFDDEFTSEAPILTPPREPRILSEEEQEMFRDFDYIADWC
Chain of Phosphatidylinositol 4,5-bisphosphate 3-kinase catalytic subunit alpha isoform (Homo sapiens), P42336 [I800L] (P42336 whole entry I800L, the tested form may be a part, canonical isoform): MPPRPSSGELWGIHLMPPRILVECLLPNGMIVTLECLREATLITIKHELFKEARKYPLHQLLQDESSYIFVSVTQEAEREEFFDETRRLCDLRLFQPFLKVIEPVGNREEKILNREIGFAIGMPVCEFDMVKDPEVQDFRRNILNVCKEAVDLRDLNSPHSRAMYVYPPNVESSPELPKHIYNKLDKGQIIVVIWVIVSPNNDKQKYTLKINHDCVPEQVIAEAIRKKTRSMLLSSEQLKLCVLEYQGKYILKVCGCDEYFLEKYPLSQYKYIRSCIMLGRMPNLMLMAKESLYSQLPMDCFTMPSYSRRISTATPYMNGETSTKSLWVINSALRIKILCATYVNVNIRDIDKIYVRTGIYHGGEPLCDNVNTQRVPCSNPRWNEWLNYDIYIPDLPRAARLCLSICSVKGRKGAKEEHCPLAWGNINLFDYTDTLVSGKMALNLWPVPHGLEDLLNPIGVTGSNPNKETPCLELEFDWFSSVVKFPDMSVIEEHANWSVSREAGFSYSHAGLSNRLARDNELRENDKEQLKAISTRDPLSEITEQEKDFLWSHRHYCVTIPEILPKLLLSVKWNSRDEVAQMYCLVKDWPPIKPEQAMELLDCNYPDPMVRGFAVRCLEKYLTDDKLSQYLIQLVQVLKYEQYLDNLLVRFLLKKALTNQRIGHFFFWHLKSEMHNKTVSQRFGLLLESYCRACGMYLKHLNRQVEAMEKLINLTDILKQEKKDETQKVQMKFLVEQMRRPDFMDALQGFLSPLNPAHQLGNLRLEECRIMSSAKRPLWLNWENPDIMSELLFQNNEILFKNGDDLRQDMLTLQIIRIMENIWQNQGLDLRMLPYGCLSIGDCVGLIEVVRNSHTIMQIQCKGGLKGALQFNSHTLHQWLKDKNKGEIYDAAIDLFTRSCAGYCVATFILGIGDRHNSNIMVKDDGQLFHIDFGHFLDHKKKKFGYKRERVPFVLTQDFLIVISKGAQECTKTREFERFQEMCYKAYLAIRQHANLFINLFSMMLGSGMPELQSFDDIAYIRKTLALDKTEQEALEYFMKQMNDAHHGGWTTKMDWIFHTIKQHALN
Chain of Ephrin type-A receptor 7 (Homo sapiens) (Q15375 28-998 limits assumed): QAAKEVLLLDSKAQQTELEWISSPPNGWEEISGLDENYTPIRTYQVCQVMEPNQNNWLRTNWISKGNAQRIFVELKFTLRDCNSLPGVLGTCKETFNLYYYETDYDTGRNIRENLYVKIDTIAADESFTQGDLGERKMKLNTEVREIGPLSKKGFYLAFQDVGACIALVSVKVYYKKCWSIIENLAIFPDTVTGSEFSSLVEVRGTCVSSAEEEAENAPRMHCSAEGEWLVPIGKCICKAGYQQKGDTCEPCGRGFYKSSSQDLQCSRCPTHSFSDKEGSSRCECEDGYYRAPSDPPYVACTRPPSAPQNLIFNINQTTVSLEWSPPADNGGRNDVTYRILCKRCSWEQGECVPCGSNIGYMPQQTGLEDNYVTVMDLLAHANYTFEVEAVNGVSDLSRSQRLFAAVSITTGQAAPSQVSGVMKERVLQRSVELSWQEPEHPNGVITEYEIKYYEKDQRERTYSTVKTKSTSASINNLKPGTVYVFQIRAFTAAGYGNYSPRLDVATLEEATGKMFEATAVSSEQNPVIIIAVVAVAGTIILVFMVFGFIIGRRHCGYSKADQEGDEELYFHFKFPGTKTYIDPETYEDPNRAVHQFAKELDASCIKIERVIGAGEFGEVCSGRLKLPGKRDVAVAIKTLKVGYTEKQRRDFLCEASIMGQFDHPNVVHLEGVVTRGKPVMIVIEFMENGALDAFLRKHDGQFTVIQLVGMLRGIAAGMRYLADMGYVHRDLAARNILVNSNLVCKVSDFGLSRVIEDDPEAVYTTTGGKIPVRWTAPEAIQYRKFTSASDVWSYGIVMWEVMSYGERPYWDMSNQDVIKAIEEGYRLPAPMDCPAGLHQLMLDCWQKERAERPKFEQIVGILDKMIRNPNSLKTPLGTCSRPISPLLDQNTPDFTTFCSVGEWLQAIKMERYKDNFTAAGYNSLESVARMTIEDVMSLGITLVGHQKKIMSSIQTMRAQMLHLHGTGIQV
Chain of Hormonally up-regulated neu tumor-associated kinase (Homo sapiens) (P57058 whole entry, the tested form may be a part): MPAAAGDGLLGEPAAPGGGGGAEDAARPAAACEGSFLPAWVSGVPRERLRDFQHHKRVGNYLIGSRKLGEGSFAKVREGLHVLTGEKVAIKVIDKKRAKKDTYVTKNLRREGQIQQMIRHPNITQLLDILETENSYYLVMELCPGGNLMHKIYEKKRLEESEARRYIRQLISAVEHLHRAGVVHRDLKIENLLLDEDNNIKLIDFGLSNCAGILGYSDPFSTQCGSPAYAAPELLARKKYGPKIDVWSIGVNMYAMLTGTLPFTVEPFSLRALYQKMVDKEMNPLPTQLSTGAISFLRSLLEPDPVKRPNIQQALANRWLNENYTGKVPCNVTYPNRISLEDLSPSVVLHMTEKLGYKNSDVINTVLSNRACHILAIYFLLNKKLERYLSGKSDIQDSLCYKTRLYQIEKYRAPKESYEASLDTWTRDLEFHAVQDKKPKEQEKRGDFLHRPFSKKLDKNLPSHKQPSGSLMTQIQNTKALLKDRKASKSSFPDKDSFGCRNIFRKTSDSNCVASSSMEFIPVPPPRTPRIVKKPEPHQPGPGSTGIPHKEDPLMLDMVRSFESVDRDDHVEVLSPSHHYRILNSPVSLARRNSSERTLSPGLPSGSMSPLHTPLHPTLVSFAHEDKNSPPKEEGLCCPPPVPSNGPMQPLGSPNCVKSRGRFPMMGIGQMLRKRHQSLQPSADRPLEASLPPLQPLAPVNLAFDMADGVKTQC
Chain of Cyclin-dependent kinase 18 (Homo sapiens) (Q07002 whole entry, the tested form may be a part, canonical isoform): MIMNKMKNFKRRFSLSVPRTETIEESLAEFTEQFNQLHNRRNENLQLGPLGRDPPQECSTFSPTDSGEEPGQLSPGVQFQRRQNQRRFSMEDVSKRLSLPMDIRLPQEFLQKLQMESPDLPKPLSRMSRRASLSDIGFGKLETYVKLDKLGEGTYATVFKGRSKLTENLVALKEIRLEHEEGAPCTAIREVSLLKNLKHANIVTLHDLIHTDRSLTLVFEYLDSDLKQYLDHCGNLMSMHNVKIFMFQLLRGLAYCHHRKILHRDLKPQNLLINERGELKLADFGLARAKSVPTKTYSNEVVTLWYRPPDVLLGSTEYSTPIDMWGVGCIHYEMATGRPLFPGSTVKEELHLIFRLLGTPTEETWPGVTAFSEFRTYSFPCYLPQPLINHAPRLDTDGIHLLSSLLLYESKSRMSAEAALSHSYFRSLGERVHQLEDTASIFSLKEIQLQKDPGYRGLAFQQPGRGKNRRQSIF
Chain of Dual specificity mitogen-activated protein kinase kinase 5 (Homo sapiens) (Q13163 whole entry, the tested form may be a part): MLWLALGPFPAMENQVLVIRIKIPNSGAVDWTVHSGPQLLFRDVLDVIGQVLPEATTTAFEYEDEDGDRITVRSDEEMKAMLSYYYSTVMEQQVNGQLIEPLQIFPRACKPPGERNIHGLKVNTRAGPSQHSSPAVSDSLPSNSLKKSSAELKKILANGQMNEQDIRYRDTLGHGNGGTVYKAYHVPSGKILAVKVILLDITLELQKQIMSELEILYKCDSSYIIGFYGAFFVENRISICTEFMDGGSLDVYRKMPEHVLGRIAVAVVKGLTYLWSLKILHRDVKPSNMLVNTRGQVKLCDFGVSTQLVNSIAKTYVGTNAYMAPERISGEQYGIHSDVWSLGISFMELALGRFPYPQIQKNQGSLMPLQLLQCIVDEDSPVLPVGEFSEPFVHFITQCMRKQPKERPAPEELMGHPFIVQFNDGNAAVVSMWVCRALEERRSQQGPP

In the case of `CC(C)Nc1sc(C(=O)c2ccc(Cl)s2)c(N)c1C#N`, the Activity is 100% in test [1]; 94% in test [2]; 72% in test [3]; 87% in test [4]; 82% in test [5]; 89% in test [6]. Also, the Activity was determined as 89% in test [7]; 71% in test [8]; 100% in test [9]; 78% in test [10]; 91% in test [11]; 78% in [12]. The Activity was found to be 100% in test [13]; 100% in test [14]; 75% in test [15]; 100% in [16]; 77% in test [17]; 73% in [18]. Besides, the Activity in test [19] amounted to 73%; in [20], 100%; in [21] it was 100%; in test [22] it was 81%; in test [23] it was 72%; in test [24] it was 98%.
